Reference: patent US8791100B2 (Novartis AG, priority 2010, dated 2014)

Experiments:
human S1P1 receptors = human S1P1 receptors (Homo sapiens (Human), UniProt P21453); test: Human S1P1 Receptor Calcium FLIPR Antagonist Assay (HeLa Gα16 S1P1); assay type: cell-based; conditions: relative antagonism vs probing agonist GNF-AC-1 at EC80, HeLa-S1P1/Gα16 cells
Source text: Human S1P1 Receptor Calcium FLIPR Antagonist Assay
The assay measures intracellular changes of Ca^2+ mediated by the synthetic probing agonist 3-{[2-(2-Trifluoromethyl-biphenyl-4-yl)-benzo[b]thiophen-5-ylmethyl]-amino}-propionic acid (GNF-AC-1) in the HeLa-S1P1/Gα16 cell clone 1: HeLa (human cervix carcinoma, ATCC CCL2) cells stably expressing N-terminally myc-tagged human S1P1 receptors (GenBank™ accession No. NM_001400; UNIPROT P21453) and promiscuous Gα16 protein (GenBank™ accession number M63904, Swissprot P30679) are cultured at 37° C., 5% CO2, and 95% relative humidity. The cells are plated in 384 well black plates (10′000 cells per well). After 24 hours the cells are loaded with Fluo-4-AM (1.6 μM in HBSS and 2.5 mM probenicid) for 1 hour at 37° C. After washing, the cells are transferred to the FLIPR. The test compounds are added at different concentrations (≦100 μM) in HBSS in the presence of 0.1% BSA and changes in fluorescence are recorded (indication of agonism). The probing agonist is added 20-30 minutes afterwards to the wells at a concentration giving 80% of the maximal activity (EC80). After each addition, time points are collected as follows: 20 time points (2 seconds) before the addition of the agonist (Fmin) and 60 time points (1 or 2 seconds) after the addition of the probing agonist. This allows the determination of the maximal fluorescence (Fmax). The ratio (Fmax−Fmin)/Fmin is plotted against the log of the concentration of the test compounds and the IC50 (relative antagonism) is calculated using the XLfit-4 software. […] A concentration-response curve of the probing agonist is determined on each plate in parallel.

[1] = test system: peripheral lymphocyte counts; test: Measurement of circulating lymphocytes after oral administration (mice); assay type: in vivo; conditions: Mus musculus, C57BL/6NCrl mice, 30 mg/kg p.o., 24 hours, vs mean counts of untreated animals, mean ± STDEV, read-out: Residual Lymphocyte Counts 24 hours after p.o. dosing
Protocol: The compounds of the invention, e.g. compounds of formula (I) typically induce the depletion of blood lymphocyte as may be determined in the assay described below. Moreover, compounds of the invention, e.g. compounds of formula (I) are typically efficacious in the said assay also when administered via the per oral route of administration.
Measurement of Circulating Lymphocytes:
The test compounds (or salts thereof) are dissolved in a vehicle such as water, saline, PEG (polyethylene glycol) 200, or PBS (phosphate buffered saline). Adult mice (C57BU6NCrl strain, female, 18-20 g) or rats (Lewis strain, male, 6-12 weeks old) are administered up to 60 mg/kg of the test compounds in 10 ml/kg (C57BU6NCrl mice) or 2 ml/kg (Lewis rats) vehicle via per oral application. The vehicle or a reference salt and FTY720 (0.3 mg/kg) are used as negative and positive controls, respectively. Blood is collected from the sublingual vein at single time points, e.g. 14 or 24 hours after the test compound administration, under short isoflurane anesthesia. Two to three animals are used in each group. Whole blood samples are subjected to hematology analysis. Peripheral lymphocyte counts are determined using an automated analyzer. The Haemathology System uses a combination of light scatter, cytochemical staining and nuclear density on two independent channels to measure the total and differential white cell counts. The reduction of lymphocytes provoked by each test compound is calculated by comparing the lymphocyte counts measured after each treatment to the mean lymphocyte counts measured in five to eight untreated mice or rats, respectively. The data are presented as mean±STDEV.

human S1P1 receptors, sequence (P21453 whole entry): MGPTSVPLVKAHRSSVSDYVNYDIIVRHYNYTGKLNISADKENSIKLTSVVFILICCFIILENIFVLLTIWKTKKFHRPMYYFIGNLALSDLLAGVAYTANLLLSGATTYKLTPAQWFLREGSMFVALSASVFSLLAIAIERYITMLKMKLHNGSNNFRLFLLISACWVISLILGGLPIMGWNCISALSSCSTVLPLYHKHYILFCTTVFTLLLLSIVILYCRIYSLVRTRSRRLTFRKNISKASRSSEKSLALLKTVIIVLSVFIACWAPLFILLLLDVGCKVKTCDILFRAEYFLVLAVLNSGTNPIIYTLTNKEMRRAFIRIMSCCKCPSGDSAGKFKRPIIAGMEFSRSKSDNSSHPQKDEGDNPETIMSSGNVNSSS

Cc1cc([C@H](Nc2ccc(C)c(CN3CC[C@@H](C(=O)O)C3)c2)C(F)(F)F)ccc1Cl [Example 21, (R)-1-{5-[(S)-1-(4-Chloro-3-methyl-phenyl)-2,22-trifluoro-ethylamino]-2-methyl-benzyl}-pyrrolidine-3-carboxylic acid] was tested, and the IC50 (human S1P1 receptors) was 1 nM and the response vs control in vivo at 30 mg/kg [1] was 17.8%.

With CC[C@@H](Nc1ccc(C)c(CN2CC[C@@H](C(=O)O)C2)c1)c1ccc(Cl)c(C)c1 [Example 23, (R)-1-{5-[(R)-1-(4-Chloro-3-methyl-phenyl)-propylamino]-2-methyl-benzyl}-pyrrolidine-3-carboxylic acid] the IC50 (human S1P1 receptors) was 1 nM and the response vs control in vivo at 30 mg/kg [1] was 25.1%.

For Cc1cc([C@H](Nc2ccc(Cl)c(CN3CC[C@@H](C(=O)O)C3)c2)C(F)(F)F)ccc1Cl [Example 29, (R)-1-{2-Chloro-5-[(S)-1-(4-chloro-3-methyl-phenyl)-2,2,2-trifluoro-ethylamino]-benzyl}-pyrrolidine-3-carboxylic acid], the IC50 (human S1P1 receptors) was 0.4 nM and the response vs control in vivo at 30 mg/kg [1] was 35.6%.

In the case of Cc1cc([C@H](Nc2ccc(C)c(CN3CC(C(=O)O)C3)c2C)C(F)(F)F)ccc1Cl [Example 31, 1-{3-[(S)-1-(4-Chloro-3-methyl-phenyl)-2,2,2-trifluoro-ethylamino]-2,6-dimethyl-benzyl}-azetidine-3-carboxylic acid], the IC50 (human S1P1 receptors) is reported as 1 nM and the response vs control in vivo at 30 mg/kg [1] is reported as 23.4%.

For CC[C@@H](Nc1ccc(C)c(CN2CC[C@@H](C(=O)O)C2)c1C)c1ccc(Cl)c(C)c1 [Example 32, (R)-1-{3-[(R)-1-(4-Chloro-3-methyl-phenyl)-propylamino]-2,6-dimethyl-benzyl}-pyrrolidine-3-carboxylic acid], the IC50 (human S1P1 receptors) was 0.8 nM and the response vs control in vivo at 30 mg/kg [1] was 17%.

With CC[C@@H](Nc1ccc(C)c(CN2CC(C(=O)O)C2)c1C)c1ccc(Cl)c(C)c1 [Example 33, 1-{3-[(R)-1-(4-Chloro-3-methyl-phenyl)-propylamino]-2,6-dimethyl-benzyl}-azetidine-3-carboxylic acid] the IC50 (human S1P1 receptors) was 0.6 nM and the response vs control in vivo at 30 mg/kg [1] was 16.2%.

Compound CC[C@@H](Nc1cc(CN2CC(C(=O)O)C2)c(F)cn1)c1ccc(Cl)c(C)c1 [Example 54, 1-{2-[(R)-1-(4-Chloro-3-methyl-phenyl)-propylamino]-5-fluoro-pyridin-4-ylmethyl}-azetidine-3-carboxylic acid] has an IC50 (human S1P1 receptors) of 0.9 nM.

CC[C@@H](Nc1cc(CN2CCC(C)(C(=O)O)C2)c(Cl)cn1)c1ccc(Cl)c(C)c1 (stereo partly drawn) [Example 57, 1-{5-Chloro-2-[(R)-1-(4-chloro-3-methyl-phenyl)-propylamino]-pyridin-4-ylmethyl}-3-methyl-pyrrolidine-3-carboxylic acid] was tested, and the IC50 (human S1P1 receptors) was 2.4 nM.

CC[C@@H](Nc1cc(CNCCC(=O)O)c(Cl)cn1)c1ccc(Cl)c(C)c1 [Example 58, 3-({5-Chloro-2-[(R)-1-(4-chloro-3-methyl-phenyl)-propylamino]-pyridin-4-ylmethyl}-amino)-propionic acid] was tested, and the IC50 (human S1P1 receptors) was 0.1 nM.

CC[C@@H](Nc1cc(CN2CC[C@@H](C(=O)O)C2)c(C)cn1)c1ccc(Cl)c(C)c1 [Example 60, (R)-1-{2-[(R)-1-(4-Chloro-3-methyl-phenyl)-propylamino]-5-methyl-pyridin-4-ylmethyl}-pyrrolidine-3-carboxylic acid] showed an IC50 (human S1P1 receptors) of 2.1 nM.

Cc1cc([C@H](Nc2ccc(Cl)c(CN3CC(C(=O)O)C3)c2)C(C)C)ccc1Cl [Example 63, 1-{2-Chloro-5-[(R)-1-(4-chloro-3-methyl-phenyl)-2-methyl-propylamino]-benzyl}-azetidine-3-carboxylic acid] gave an IC50 (human S1P1 receptors) of 1.1 nM.

For Cc1cc([C@H](Nc2ccc(Cl)c(CN3CC(C(=O)O)C3)c2)C(C)C)cc(C)c1Cl [Example 64, 1-{2-Chloro-5-[(R)-1-(4-chloro-3,5-dimethyl-phenyl)-2-methyl-propylamino]-benzyl}-azetidine-3-carboxylic acid], the IC50 (human S1P1 receptors) was 1.7 nM.

CC[C@@H](Nc1ccc(Cl)c(CN2CC(C)(C(=O)O)C2)c1)c1cc(C)c(Cl)c(C)c1 [Example 66, 1-{2-Chloro-5-[(R)-1-(4-chloro-3,5-dimethyl-phenyl)-propylamino]-benzyl}-3-methyl-azetidine-3-carboxylic acid] was tested, and the response vs control in vivo at 30 mg/kg [1] was 19.4%.

Work on Cc1cc([C@H](Nc2cccc(CN3CC(C(=O)O)C3)c2)C(F)(F)F)ccc1Cl [Example 67, 1-{3-[(S)-1-(4-Chloro-3-methyl-phenyl)-2,2,2-trifluoro-ethylamino]-benzyl}-azetidine-3-carboxylic acid] yielded an IC50 (human S1P1 receptors) of 0.8 nM.

Cc1cc([C@H](Nc2ccc(Cl)c(CN3CC(C(=O)O)C3)c2)C(F)(F)F)ccc1Cl [Example 68] was tested, and the IC50 (human S1P1 receptors) was 0.7 nM.

In the case of Cc1cc([C@H](Nc2ccc(C(F)(F)F)c(CN3CC(C(=O)O)C3)c2)C(F)(F)F)ccc1Cl [Example 69, 1-{5-[(S)-1-(4-Chloro-3-methyl-phenyl)-2,2,2-trifluoro-ethylamino]-2-trifluoromethyl-benzyl}-azetidine-3-carboxylic acid], the IC50 (human S1P1 receptors) is reported as 0.8 nM.

Cc1cc([C@H](Nc2ccc(Cl)c(CN3CCC(C(=O)O)C3)c2)C(F)(F)F)ccc1Cl (stereo partly drawn) [Example 72, 1-{2-Chloro-5-[(S)-1-(4-chloro-3-methyl-phenyl)-2,2,2-trifluoro-ethylamino]-benzyl}-pyrrolidine-3-carboxylic acid] was tested, and the IC50 (human S1P1 receptors) was 1.1 nM.

CC[C@@H](Nc1cccc(CN2CC(C(=O)O)C2)n1)c1ccc(Cl)c(C)c1 [Example 74, 1-{6-[(R)-1-(4-Chloro-3-methyl-phenyl)-propylamino]-pyridin-2-ylmethyl}-azetidine-3-carboxylic acid] gave an IC50 (human S1P1 receptors) of 14.1 nM.

Work on CC[C@@H](Nc1cc(CN2CC(C(=O)O)C2)ccn1)c1ccc(Cl)c(C)c1 [Example 75, 1-{2-[(R)-1-(4-Chloro-3-methyl-phenyl)-propylamino]-pyridin-4-ylmethyl}-azetidine-3-carboxylic acid] yielded an IC50 (human S1P1 receptors) of 2.8 nM.

In the case of Cc1cc([C@H](Nc2cccc(CN3CC(C(=O)O)C3)c2)C2CCC2)ccc1Cl [Example 76, 1-(3-{[(R)-(4-Chloro-3-methyl-phenyl)-cyclobutyl-methyl]-amino}-benzyl)-azetidine-3-carboxylic acid], the IC50 (human S1P1 receptors) is reported as 5.7 nM.

With CC[C@@H](Nc1ccnc(CN2CC(C(=O)O)C2)c1)c1ccc(Cl)c(C)c1 [Example 78, 1-{4-[(R)-1-(4-Chloro-3-methyl-phenyl)-propylamino]-pyridin-2-ylmethyl}-azetidine-3-carboxylic acid] the IC50 (human S1P1 receptors) was 0.8 nM.

Work on CC[C@@H](Nc1cc(CN2CC(C(=O)O)C2)c(Cl)cn1)c1ccc(Cl)c(C)c1 [Example 79, 1-{5-Chloro-2-[(R)-1-(4-chloro-3-methyl-phenyl)-propylamino]-pyridin-4-ylmethyl}-azetidine-3-carboxylic acid] yielded an IC50 (human S1P1 receptors) of 0.6 nM.

CC[C@@H](Nc1ccc(C)c(CNCC(C)(C)C(=O)O)c1)c1cc(C)c(Cl)c(C)c1 [Example 80, 3-{5-[(R)-1-(4-Chloro-3,5-dimethyl-phenyl)-propylamino]-2-methyl-benzylamino}-2,2-dimethyl-propionic acid] gave an IC50 (human S1P1 receptors) of 24.5 nM.

For CC[C@@H](Nc1ccc(C)c(CNC[C@H](C)C(=O)O)c1)c1cc(C)c(Cl)c(C)c1 [Example 81, (S)-3-{5-[(R)-1-(4-Chloro-3,5-dimethyl-phenyl)-propylamino]-2-methyl-benzylamino}-2-methyl-propionic acid], the IC50 (human S1P1 receptors) was 3.9 nM.

With CC[C@@H](Nc1ccc(C)c(CN(C)CCC(=O)O)c1)c1cc(C)c(Cl)c(C)c1 [Example 82, 3-({5-[(R)-1-(4-Chloro-3,5-dimethyl-phenyl)-propylamino]-2-methyl-benzyl}-methyl-amino)-propionic acid] the IC50 (human S1P1 receptors) was 3 nM.

Work on Cc1cc([C@H](Nc2ccc(C)c(CN3CCC(C)(C(=O)O)C3)c2)C(F)(F)F)ccc1Cl (stereo partly drawn) [Example 83, 1-{5-[(S)-1-(4-Chloro-3-methyl-phenyl)-2,2,2-trifluoro-ethylamino]-2-methyl-benzyl}-3-methyl-pyrrolidine-3-carboxylic acid] yielded an IC50 (human S1P1 receptors) of 2.9 nM.
